ChEMBL document CHEMBL3132805, “Synthesis of new 13-diphenylalkyl analogues of berberine and elucidation of their base pair specificity and energetics of DNA binding” (Medchemcomm, 2014)
Active and inactive are the calls of the source. No cut-off for these calls is given here.

Experiments:
[1] = tested on: DNA; assay: Binding affinity to calf thymus DNA in CP buffer at pH 7.0 at 3 to 24 uM by CD spectroscopy; format: nucleic-acid assay; settings: Bos taurus
[2] = Binding affinity to poly(dA-dT).poly(dA-dT) DNA (unknown origin) in CP buffer at pH 7.0 at 3 to 24 uM by CD spectroscopy
[3] = Binding affinity to duplex DNA (unknown origin) assessed as change in melting temperature
[4] = Binding affinity to poly(dG-dC).poly(dG-dC) DNA (unknown origin) in CP buffer at pH 7.0 at 3 to 24 uM by CD spectroscopy

| SMILES | Activity [1] | Activity [2] | ΔTm [3] [°C] | Activity [4] |
| --- | --- | --- | --- | --- |
| COc1ccc2c(CCCCC(c3ccccc3)c3ccccc3)c3[n+](cc2c1OC)CCc1cc2c(cc1-3)OCO2 | Active | Active | 17 | Active |
| COc1ccc2c(CCCCCC(c3ccccc3)c3ccccc3)c3[n+](cc2c1OC)CCc1cc2c(cc1-3)OCO2 | Active | Active | 16.6 | Active |
| COc1ccc2c(CCC(c3ccccc3)c3ccccc3)c3[n+](cc2c1OC)CCc1cc2c(cc1-3)OCO2 | Active | Active | 16 | Active |
| COc1ccc2c(C(c3ccccc3)c3ccccc3)c3[n+](cc2c1OC)CCc1cc2c(cc1-3)OCO2 | Active | Active | 6 | Active |
| COc1ccc2cc3[n+](cc2c1OC)CCc1cc2c(cc1-3)OCO2 |  |  | 13 |  |
| COc1ccc2c(CCCC(c3ccccc3)c3ccccc3)c3[n+](cc2c1OC)CCc1cc2c(cc1-3)OCO2 | Active | Active | 19 | Active |
| COc1ccc2c(CC(c3ccccc3)c3ccccc3)c3[n+](cc2c1OC)CCc1cc2c(cc1-3)OCO2 | Active | Active | 7 | Active |
